# Experimental data published in patent US20210369640A1, “COMPOSITION CONTAINING SESQUITERPENE DERIVATIVE AS ACTIVE INGREDIENT FOR PREVENTION OR TREATMENT OF MUSCLE DISEASES” (INDUSTRY-ACADEMIC COOPERATION FOUNDATION, YONSEI UNIVERSITY, priority 2017, published 2021).
# Legend:
# [1] = tested on: mouse myoblast cell line (C2C12 cells); assay: Myotube thickness in dexamethasone-treated mouse myoblasts (Giemsa-Wright staining, ImageJ); assay type: cell-based; settings: 100 μM, vs dexamethasone alone; for increase in thickness of myotubes reduced by dexamethasone: co-treated with 50 μM dexamethasone for two days from day 4 of differentiation, quantified using ImageJ
# Description: A mouse myoblast cell line (C2C12 cells) was purchased from ATCC (Manassas, Va., USA), and the purchased cells were incubated in a 5% CO2 incubator at 37° C. using 10% fetal bovine serum media (Gibco-BRL). When the confluency of the incubated cells became 80%, the myoblasts were allowed to differentiate into myotubes using 2% horse serum media (Gibco-BRL). The mouse myoblasts incubated in Preparation Example 1 were co-treated with 50 dexamethasone (dexa; Sigma) and 100 μM of sesquiterpene derivatives (experimental materials) for two days from day 4 of differentiation of the mouse myoblasts. An experiment was conducted in the same manner as in Example 1, except for treatment with 50 μM of dexamethasone (dexa; Sigma) instead of the sesquiterpene derivatives (experimental materials). […] When the fixing was completed, the myotubes were naturally dried at room temperature for 10 minutes, and then a Giemsa-Wright staining solution (Asan Pharmaceutical, Seoul), which specifically stains myotubes, was dropped onto the myotubes and left for 30 minutes to stain the myotubes. […] Six sections were randomly selected from each well and micrographed, and the thickness of at least […] myotubes from each well was analyzed (three repetitions/group).
# p-4E-BP1 protein = assay: Western blotting of p-4E-BP1 in dexamethasone-treated mouse myoblasts; assay type: cell-based; settings: 100 μM, co-treated with dexamethasone; FIG. 3A
# Description: (§10) The mouse myoblasts incubated in Preparation Example 1 were co-treated with 50 dexamethasone (dexa; Sigma) and 100 μM of sesquiterpene derivatives (experimental materials) for two days from day 4 of differentiation of the mouse myoblasts. An experiment was conducted in the same manner as in Example 1, except for treatment with 50 μM of dexamethasone (dexa; Sigma) instead of the sesquiterpene derivatives (experimental materials). To perform western blotting on cells, a lysis buffer containing 500 μL of 100 mM Tris-HCl, pH 7.4, 5 mM EDTA, 50 mM sodium pyrophosphate, 50 mM NaF, 100 mM orthovanadate, 1% Triton X-100, 1 mM phenylmethanesulfonyl fluoride, 2 μg/mL of aprotinin, 1 μg/mL of pepstatin A, and 1 μg/mL of leupeptin was added to each well from which media were removed, the cells were harvested, and then centrifuged at 1,300×g and 4° C. for 20 minutes, and then the middle layer was taken, and the concentrations of proteins were quantified by the Bradford method (Bio-Rad). 40 μg of the quantified proteins were electrophoresed by SDS-polyacrylamide gel, and then the separated proteins were transferred to nitrocellulose membranes (Amersham, Buckinghamshire, UK). […] Bands visualized on the X-ray film were scanned and quantified using Quantity One analysis software (Bio-Rad).
# p-p70S6K1 protein = assay: Western blotting of p-p70S6K1 in dexamethasone-treated mouse myoblasts; assay type: cell-based; settings: 100 μM, co-treated with dexamethasone; FIG. 3A
# Description: as §10
# MuRF1 = assay: RT-PCR of MuRF1 gene expression in dexamethasone-treated mouse myoblasts; assay type: cell-based; settings: 100 μM, co-treated with dexamethasone; FIG. 3B
# Description: (§1) A mouse myoblast cell line (C2C12 cells) was purchased from ATCC (Manassas, Va., USA), and the purchased cells were incubated in a 5% CO2 incubator at 37° C. using 10% fetal bovine serum media (Gibco-BRL). When the confluency of the incubated cells became 80%, the myoblasts were allowed to differentiate into myotubes using 2% horse serum media (Gibco-BRL).
# (§2) The mouse myoblasts incubated in Preparation Example 1 were co-treated with 50 dexamethasone (dexa; Sigma) and 100 μM of sesquiterpene derivatives (experimental materials) for two days from day 4 of differentiation of the mouse myoblasts.
# (§3) An experiment was conducted in the same manner as in Example 1, except for treatment with 50 μM of dexamethasone (dexa; Sigma) instead of the sesquiterpene derivatives (experimental materials).
# (§4) 334 μl of a TRIzol solution per 1×10^7 mouse myoblasts of Example 1 was added and replaced, followed by centrifugation at 12,000×g and 4° C. for 10 minutes. The supernatant was transferred to a new tube and then 67 μl of chloroform was added thereto, followed by vortexing. […] The concentration of the extracted RNA samples was measured at wavelengths of 260 nm and 280 nm using a UV/VIS spectrometer (Beckman Coulter, DU730), and was subjected to agarose gel electrophoresis to confirm the integrity of RNA samples. […]
# MaFbx/atrogin1 = assay: RT-PCR of MaFbx/atrogin1 gene expression in dexamethasone-treated mouse myoblasts; assay type: cell-based; settings: 100 μM, co-treated with dexamethasone; FIG. 3B
# Description: as §1, §2, §3, §4
# C57BL/6N mice [2] = assay: Grip strength test; assay type: in vivo, mouse; settings: 200 mpk orally once a day, week 12 of breeding
# Excerpt: (§5) 32 5-week-old male C57BL/6N mice (Orient, Korea) were adapted to a laboratory environment for one week with a commercial normal diet (rodent chow), and then randomly divided into four groups (chow vehicle group, chow α-cedrene group, HFD vehicle group, and HFD α-cedrene group) according to a randomized block design and bred for a total of 10 weeks.
# (§6) While mice bred in Preparation Example 2 were fed a normal diet for 10 weeks, 200 mpk α-cedrene was orally administered to the mice once a day.
# A procedure was carried out in the same manner as in Example 2, except that the mice were fed a high-fat experimental diet (HFD: 40% high fat energy, 17 g lard+3% corn oil/100 g diet). […]
# The grip strength of the mice of Examples 2 and 3 and Comparative Examples 2 and 3 was measured at week 12 of breeding using a grip strength meter for mice (DJ2-248, Daejong Instrument Industry Co., Ltd., Korea). In particular, a force (N) for mice to hold onto a wire mesh was measured while mounting the four feet of mice on a wire mesh to which a gauge was attached, and pulling the tails of the mice backward. The measurement was successively performed five times, and the maximum value was determined as grip strength. To normalize the experimental results, grip strength (N) divided by body weight […] was calculated.
# C57BL/6N mice [3] = assay: Four limb hanging test; assay type: in vivo, mouse; settings: 200 mpk orally once a day; for hanging time: FIG. 5A; for hanging time multiplied by body weight: FIG. 5B
# Excerpt: as §5, §6
# (§7) A procedure was carried out in the same manner as in Example 2, except that the mice were fed a high-fat experimental diet (HFD: 40% high fat energy, 17 g lard+3% corn oil/100 g diet).
# (§8) A procedure was carried out in the same manner as in Example 2, except that a vehicle was orally administered instead of 200 mpk α-cedrene, while a commercial normal diet (rodent chow) was ingested.
# (§9) A procedure was carried out in the same manner as in Comparative Example 2, except that a high-fat diet (HFD: 40% high fat energy) was ingested.
# To measure the limb muscle strength of mice, the time that the mice of Examples 2 and 3 and Comparative Examples 2 and 3 hung upside down using their four feet was measured at week 12 of breeding. The time (seconds) that the mice hung upside down in a cage equipped with a wire mesh cover (diameter <0.5 cm) (20×30×50 cm, Jeung-Do Bio & Plant Co., Ltd, Korea) was measured a total of three times, and a rest period of 30 minutes or longer was given between measurements. Experimental results were obtained by multiplying hanging time (sec) by body weight (kg).
# mouse gastrocnemius = assay: H&E staining of muscle tissue, fiber diameter; assay type: in vivo; settings: 200 mpk orally once a day, vs vehicle
# Excerpt: as §5, §6, §7, §8, §9
# Muscle tissues of mice were extracted, fixed in 10% formalin, and then stained with hematoxylin and eosin (H&E) after requesting Korea CFC (Gyeonggi-do, Korea) to do so, and observed using an optical microscope (IX71, Olympus, JPN) and photographed using a digital camera (DP71, Olympus, JPN).
# [4] = high-fat diet, vs HFD vehicle group
# [5] = normal diet, vs chow vehicle group
compound,measurement,setting,value
C[C@@H]1CC[C@H]2C(C)(C)[C@H]3C[C@@]12CC1OC13C (some centres unmarked) [cedrene epoxide],increase in thickness of myotubes reduced by dexamethasone,[1],38%
"CC1=CC[C@@]23C[C@@H]1C(C)(C)C2CC[C@H]3C (stereo partly drawn) [cedrene, α-cedrene]",increase in thickness of myotubes reduced by dexamethasone,[1],58%
same,"thickness of myotubes reduced by dexamethasone (visually confirmed, FIG. 1A)",[1]; co-treated with dexamethasone,increased
same,amount of p-4E-BP1 protein reduced by dexamethasone,p-4E-BP1 protein,significantly increased
same,amount of p-p70S6K protein reduced by dexamethasone,p-p70S6K1 protein,significantly increased
same,expression of MuRF1,MuRF1,significantly reduced
same,expression of MaFbx/atrogin1,MaFbx/atrogin1,significantly reduced
same,increase in grip strength,C57BL/6N mice [2]; [4],31%
same,increase in grip strength,C57BL/6N mice [2]; [5],26%
same,hanging time,C57BL/6N mice [3]; [4],significantly increased
same,hanging time multiplied by body weight,C57BL/6N mice [3]; [4],significantly increased
same,hanging time,C57BL/6N mice [3]; [5],significantly increased
same,hanging time multiplied by body weight,C57BL/6N mice [3]; [5],significantly increased
same,increase in fiber diameter of the mouse gastrocnemius,mouse gastrocnemius; CHOW group,21%
same,increase in fiber diameter of the mouse gastrocnemius,mouse gastrocnemius; HFD group,27%
CC1=CCC23CC1C(C)(CO)C2CCC3C (centres unmarked) [cedrenol],increase in thickness of myotubes reduced by dexamethasone,[1],43%
C[C@@H]1CC[C@H]2C(C)(C)[C@H]3C[C@@]12CC[C@@]3(C)O [cedrol],increase in thickness of myotubes reduced by dexamethasone,[1],40%
CC(=O)O[C@]1(C)CC[C@@]23C[C@@H]1C(C)(C)[C@@H]2CC[C@H]3C [cedryl acetate],increase in thickness of myotubes reduced by dexamethasone,[1],51%
CC(=O)C1=C(C)[C@@H]2C[C@@]3(C1)[C@H](C)CC[C@H]3C2(C)C [methyl cedryl ketone],increase in thickness of myotubes reduced by dexamethasone,[1],32%
C=C1CC[C@@]23C[C@@H]1C(C)(C)C2CC[C@H]3C (stereo partly drawn) [β-cedrene],increase in thickness of myotubes reduced by dexamethasone,[1],36%
